Experimental findings from US9296741B2, “Bromodomain inhibitors” (priority 2012, dated 2016) are described below.

Series [1] can be described thus: Human liver microsome stability assay. It counts as in vitro ADME. As to conditions: both sexes, human, microsomes, pH 7.4.
Series [2] in a line: Rat liver microsome stability assay. It counts as in vitro ADME. To be noted: rat liver microsomes (male Sprague-Dawley), 0.5 μM test compound, 0.25 mg/mL microsomal protein, pH 7.4, 37° C.; read-out: Stability in rat liver microsomes (t1/2 in minutes).
Series [3] can be described thus: Mouse liver microsome stability assay. It counts as in vitro ADME. As to conditions: male, CD1, mouse, microsomes, pH 7.4.
The target of series [4] is human BRD4 second bromodomain (BDII_E352-M457) (Homo sapiens (Human), UniProt O60885). In words: TR-FRET bromodomain binding assay, BRD4 second bromodomain.
Series [5] concerns the target human BRD4 first bromodomain (BDI_K57-E168) (Homo sapiens (Human), UniProt O60885). In words: TR-FRET bromodomain binding assay, BRD4 first bromodomain.
The test system of series [6] is breast cancer cell line MX-1. In words: MX-1 cell line proliferation assay. It counts as cell-based, human. As to conditions: Homo sapiens, MX1, 72 h; MX-1 cells, 3-day proliferation, Cell Titer Glo; read-out: Cellular proliferation: EC50.

pEC50, pKi: −log10 of the molar value. A value given as a limit tells only on which side of the number the result lay.

As for `Cn1cc(-c2cc(S(C)(=O)=O)ccc2Nc2ccc(F)cc2)c2cc[nH]c2c1=O` [Example 332, 4-{2-[(4-fluorophenyl)amino]-5-(methylsulfonyl)phenyl}-6-methyl-1,6-dihydro-7H-pyrrolo[2,3-c]pyridin-7-one], the half-life at 0.5 μM in series [1] was 65 min; in series [2], 70 min; in series [3], more than 120 min. Also, the pKi in series [4] is 7.51; in series [5], 7.52. Besides, the pEC50 in series [6] was 7.27.
As to `Cn1cc(-c2cc(S(C)(=O)=O)ccc2Oc2cccc(Cl)c2)c2cc[nH]c2c1=O` [Example 153, 4-[2-(3-chlorophenoxy)-5-(methylsulfonyl)phenyl]-6-methyl-1,6-dihydro-7H-pyrrolo[2,3-c]pyridin-7-one], the values for the half-life at 0.5 μM in series [1], in series [2] and in series [3] were 33 min, 8 min and 11 min, respectively. For the same compound, the pKi in series [4] is 8.09; in series [5], 7.64. The pEC50 in series [6] was 7.03.
Turning to `CCS(=O)(=O)c1ccc(Oc2ccc(F)cc2F)c(-c2cn(C)c(=O)c3[nH]ncc23)c1` [Example 322, 4-[2-(2,4-difluorophenoxy)-5-(ethylsulfonyl)phenyl]-6-methyl-1,6-dihydro-7H-pyrazolo[3,4-c]pyridin-7-one], the half-life at 0.5 μM in series [1] is more than 120 min; in series [2] it was 57 min; in series [3] it was more than 120 min. The pKi in series [4] was 7.34; in series [5] it was 6.74. Further, the pEC50 in series [6] was 7.18.
For the compound `Cn1nc(-c2ccccc2Oc2ccccc2)c2cc[nH]c2c1=O` [Example 82, 6-methyl-4-(2-phenoxyphenyl)-1,6-dihydro-7H-pyrrolo[2,3-d]pyridazin-7-one], the results for the half-life at 0.5 μM in series [1], in series [2] and in series [3] were 19 min, 2 min and 2 min, respectively. Besides, the pKi in series [4] was 6.74; in series [5], 6.28. Also, in series [6], the pEC50 was 6.12.
As for `Cn1cc(-c2cc(NS(=O)(=O)CCN3CCOCC3)ccc2Oc2ccc(F)cc2F)c2cc[nH]c2c1=O` [Example 295, N-[4-(2,4-difluorophenoxy)-3-(6-methyl-7-oxo-6,7-dihydro-1H-pyrrolo[2,3-c]pyridin-4-yl)phenyl]-2-(morpholin-4-yl)ethanesulfonamide], the figures for the half-life at 0.5 μM in series [1], in series [2] and in series [3] were 7 min, 15 min and 3 min, respectively. In addition, the pKi in series [4] was 7.51; in series [5], 7.55. For the same compound, in series [6], the pEC50 is 6.65.
In the case of `Cn1cc(-c2cc(S(N)(=O)=O)cnc2NC2CCCCC2)c2cc[nH]c2c1=O` [Example 96, 6-(cyclohexylamino)-5-(6-methyl-7-oxo-6,7-dihydro-1H-pyrrolo[2,3-c]pyridin-4-yl)pyridine-3-sulfonamide], the figures for the half-life at 0.5 μM in series [1], in series [2] and in series [3] were 24 min, 13 min and 33 min, respectively. The pKi in series [4] is 8.96; in series [5] it was 9.20. The pEC50 in series [6] is 7.80.
With `Cn1cc(-c2cc(C(N)=O)ccc2Oc2ccc(F)cc2F)c2cc[nH]c2c1=O` [Example 50, 4-(2,4-difluorophenoxy)-3-(6-methyl-7-oxo-6,7-dihydro-1H-pyrrolo[2,3-c]pyridin-4-yl)benzamide], the half-life at 0.5 μM in series [1] was found to be 35 min; in series [2] it was 88 min; in series [3], 46 min. Further, the pKi in series [4] was 8.09; in series [5], 7.67. For the same compound, the pEC50 in series [6] was 6.69.
With `Cn1cc(-c2cc(S(C)(=O)=O)ccc2Oc2ccc(CC(N)=O)cc2)c2cc[nH]c2c1=O` [Example 165, 2-{4-[2-(6-methyl-7-oxo-6,7-dihydro-1H-pyrrolo[2,3-c]pyridin-4-yl)-4-(methylsulfonyl)phenoxy]phenyl}acetamide], the half-life at 0.5 μM in series [1] is more than 120 min; in series [2] it was 111 min; in series [3], 27 min. Also, the pKi is 8.66 in series [4] and 8.30 in series [5]. In series [6], the pEC50 is 6.98.
